Test results published in PubChem BioAssay (NCI).
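These data come from cells grown in 96-well plates and exposed to compound for 48 hours at five concentrations. The concentration for 50% growth inhibition is given as GI50. TGI marks complete inhibition of growth.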

Legend:
Experiment in all cases: DTP human tumour cell line panel, 48 h
SK-MEL-5 melanoma = test system: SK-MEL-5 melanoma
ACHN renal = test system: ACHN renal
SF-268 CNS = test system: SF-268 CNS
SK-MEL-28 melanoma = test system: SK-MEL-28 melanoma
RPMI-8226 leukemia = test system: RPMI-8226 leukemia
SF-295 CNS = test system: SF-295 CNS
MALME-3M melanoma = test system: MALME-3M melanoma
OVCAR-5 ovarian = test system: OVCAR-5 ovarian
HS 578T breast = test system: HS 578T breast
RXF 393 renal = test system: RXF 393 renal
SF-539 CNS = test system: SF-539 CNS
SNB-75 CNS = test system: SNB-75 CNS
SN12C renal = test system: SN12C renal
UACC-62 melanoma = test system: UACC-62 melanoma
NCI/ADR-RES ovarian = test system: NCI/ADR-RES ovarian
UO-31 renal = test system: UO-31 renal
SNB-19 CNS = test system: SNB-19 CNS
DU-145 prostate = test system: DU-145 prostate
CAKI-1 renal = test system: CAKI-1 renal
NCI-H23 lung = test system: NCI-H23 lung
MCF7 breast = test system: MCF7 breast
EKVX NSCLC = test system: EKVX NSCLC
KM12 colon = test system: KM12 colon
NCI-H460 lung = test system: NCI-H460 lung
OVCAR-3 ovarian = test system: OVCAR-3 ovarian
IGROV1 ovarian = test system: IGROV1 ovarian
MOLT-4 leukemia = test system: MOLT-4 leukemia
K-562 leukemia = test system: K-562 leukemia
A549 NSCLC = test system: A549 NSCLC
SR leukemia = test system: SR leukemia
COLO 205 colon = test system: COLO 205 colon
A498 renal = test system: A498 renal
OVCAR-4 ovarian = test system: OVCAR-4 ovarian
HT29 colon = test system: HT29 colon
HOP-92 NSCLC = test system: HOP-92 NSCLC
TK-10 renal = test system: TK-10 renal
HCT-15 colon = test system: HCT-15 colon
786-0 renal = test system: 786-0 renal
CCRF-CEM leukemia = test system: CCRF-CEM leukemia
HL-60(TB) leukemia = test system: HL-60(TB) leukemia
MDA-MB-468 breast = test system: MDA-MB-468 breast
U251 CNS = test system: U251 CNS
HCC-2998 colon = test system: HCC-2998 colon
SK-OV-3 ovarian = test system: SK-OV-3 ovarian
T-47D breast = test system: T-47D breast
SW-620 colon = test system: SW-620 colon
NCI-H226 lung = test system: NCI-H226 lung
LOX IMVI melanoma = test system: LOX IMVI melanoma
MDA-MB-231 breast = test system: MDA-MB-231 breast
UACC-257 melanoma = test system: UACC-257 melanoma
HCT-116 colon = test system: HCT-116 colon
NCI-H522 lung = test system: NCI-H522 lung
MDA-MB-435 = test system: MDA-MB-435
BT-549 breast = test system: BT-549 breast
OVCAR-8 ovarian = test system: OVCAR-8 ovarian
M14 melanoma = test system: M14 melanoma
PC-3 prostate = test system: PC-3 prostate
HOP-62 NSCLC = test system: HOP-62 NSCLC

Cc1ccc(/C=C/c2n(Cc3ccc4ccccc4c3)c3ccccc3[n+]2Cc2ccc3ccccc3c2)cc1 showed a GI50 (SK-MEL-5 melanoma) of 0.905 µM, a TGI (SK-MEL-5 melanoma) of 2.11 µM and a GI50 (ACHN renal) of 0.782 µM. The TGI (ACHN renal) was 2.03 µM, the GI50 (SF-268 CNS) was 1.5 µM and the TGI (SF-268 CNS) was 3.88 µM. It also gave a GI50 (SK-MEL-28 melanoma) of 0.726 µM, a TGI (SK-MEL-28 melanoma) of 2.01 µM and a GI50 (RPMI-8226 leukemia) of 0.331 µM. The TGI (RPMI-8226 leukemia) was 2.3 µM, the GI50 (SF-295 CNS) was 0.399 µM and the TGI (SF-295 CNS) was 1.66 µM. It also gave a GI50 (MALME-3M melanoma) of 0.465 µM, a TGI (MALME-3M melanoma) of 1.74 µM and a GI50 (OVCAR-5 ovarian) of 1.1 µM. For the same compound, the TGI (OVCAR-5 ovarian) was 2.3 µM, the GI50 (HS 578T breast) was 0.382 µM and the TGI (HS 578T breast) was 1.74 µM. The GI50 (RXF 393 renal) was 0.325 µM, the TGI (RXF 393 renal) was 1.39 µM and the GI50 (SF-539 CNS) was 0.475 µM. It also gave a TGI (SF-539 CNS) of 1.71 µM, a GI50 (SNB-75 CNS) of 0.729 µM and a TGI (SNB-75 CNS) of 2.15 µM. It also gave a GI50 (SN12C renal) of 1.45 µM, a TGI (SN12C renal) of 2.79 µM and a GI50 (UACC-62 melanoma) of 1.27 µM. For the same compound, the TGI (UACC-62 melanoma) was 2.56 µM, the GI50 (NCI/ADR-RES ovarian) was 1.9 µM and the TGI (NCI/ADR-RES ovarian) was 4.56 µM. It also gave a GI50 (UO-31 renal) of 1.44 µM and a TGI (UO-31 renal) of 2.77 µM.
O=C(c1ccc(Cl)cc1)c1ccc(OCCCN2CCN(c3ccncc3)CC2)cc1 showed a GI50 (SNB-19 CNS) of 9.11 µM, a TGI (SNB-19 CNS) of 21.8 µM and a GI50 (DU-145 prostate) of 10.1 µM. For the same compound, the TGI (DU-145 prostate) was 23.6 µM, the GI50 (SK-MEL-5 melanoma) was 1.73 µM and the TGI (SK-MEL-5 melanoma) was 4.18 µM. For the same compound, the GI50 (CAKI-1 renal) was 4.95 µM, the TGI (CAKI-1 renal) was 19.4 µM and the GI50 (NCI-H23 lung) was 2.89 µM. For the same compound, the TGI (NCI-H23 lung) was 11.7 µM, the GI50 (ACHN renal) was 8.94 µM and the TGI (ACHN renal) was 21.1 µM. It also gave a GI50 (MCF7 breast) of 1.89 µM, a TGI (MCF7 breast) of 5.16 µM and a GI50 (SF-268 CNS) of 11.6 µM. It also gave a TGI (SF-268 CNS) of 27.9 µM, a GI50 (EKVX NSCLC) of 3.62 µM and a TGI (EKVX NSCLC) of 15.5 µM. The GI50 (KM12 colon) was 4.57 µM, the TGI (KM12 colon) was 17 µM and the GI50 (SK-MEL-28 melanoma) was 1.99 µM. For the same compound, the TGI (SK-MEL-28 melanoma) was 3.82 µM, the GI50 (RPMI-8226 leukemia) was 2.38 µM and the TGI (RPMI-8226 leukemia) was 10 µM. The GI50 (NCI-H460 lung) was 4.81 µM, the TGI (NCI-H460 lung) was 18 µM and the GI50 (OVCAR-3 ovarian) was 3.9 µM. It also gave a TGI (OVCAR-3 ovarian) of 17.3 µM, a GI50 (SF-295 CNS) of 2.04 µM and a TGI (SF-295 CNS) of 4.82 µM. It also gave a GI50 (MALME-3M melanoma) of 1.79 µM, a TGI (MALME-3M melanoma) of 3.41 µM and a GI50 (IGROV1 ovarian) of 6.59 µM. It also gave a TGI (IGROV1 ovarian) of 21 µM, a GI50 (MOLT-4 leukemia) of 2.88 µM and a TGI (MOLT-4 leukemia) of 9.07 µM. For the same compound, the GI50 (K-562 leukemia) was 1.08 µM, the TGI (K-562 leukemia) was 4.8 µM and the GI50 (A549 NSCLC) was 9.41 µM. The TGI (A549 NSCLC) was 23.7 µM, the GI50 (OVCAR-5 ovarian) was 10.5 µM and the TGI (OVCAR-5 ovarian) was 22.9 µM. For the same compound, the GI50 (SR leukemia) was 1.7 µM, the TGI (SR leukemia) was 5.65 µM and the GI50 (COLO 205 colon) was 1.7 µM. The TGI (COLO 205 colon) was 3.51 µM, the GI50 (A498 renal) was 16 µM and the TGI (A498 renal) was 30.2 µM. For the same compound, the GI50 (OVCAR-4 ovarian) was 5.07 µM, the TGI (OVCAR-4 ovarian) was 23.9 µM and the GI50 (HS 578T breast) was 6.05 µM. It also gave a TGI (HS 578T breast) of 27.7 µM, a GI50 (HT29 colon) of 1.81 µM and a TGI (HT29 colon) of 6.41 µM. For the same compound, the GI50 (HOP-92 NSCLC) was 1.54 µM, the TGI (HOP-92 NSCLC) was 11.2 µM and the GI50 (RXF 393 renal) was 0.831 µM. For the same compound, the TGI (RXF 393 renal) was 6.4 µM, the GI50 (TK-10 renal) was 12.3 µM and the TGI (TK-10 renal) was 25.6 µM. It also gave a GI50 (HCT-15 colon) of 1.48 µM, a TGI (HCT-15 colon) of 4.46 µM and a GI50 (786-0 renal) of 1.69 µM. For the same compound, the TGI (786-0 renal) was 3.27 µM, the GI50 (CCRF-CEM leukemia) was 2.7 µM and the TGI (CCRF-CEM leukemia) was 12.2 µM. It also gave a GI50 (HL-60(TB) leukemia) of 1.46 µM, a TGI (HL-60(TB) leukemia) of 3.59 µM and a GI50 (MDA-MB-468 breast) of 1.39 µM. It also gave a TGI (MDA-MB-468 breast) of 4.38 µM, a GI50 (U251 CNS) of 3.98 µM and a TGI (U251 CNS) of 15.2 µM. The GI50 (SF-539 CNS) was 1.77 µM, the TGI (SF-539 CNS) was 4.58 µM and the GI50 (SNB-75 CNS) was 3.17 µM. It also gave a TGI (SNB-75 CNS) of 18.6 µM, a GI50 (HCC-2998 colon) of 3.01 µM and a TGI (HCC-2998 colon) of 8.47 µM. For the same compound, the GI50 (SK-OV-3 ovarian) was 5.1 µM, the TGI (SK-OV-3 ovarian) was 18.4 µM and the GI50 (SN12C renal) was 10.9 µM. For the same compound, the TGI (SN12C renal) was 23.2 µM, the GI50 (T-47D breast) was 3.22 µM and the TGI (T-47D breast) was 18.3 µM. For the same compound, the GI50 (SW-620 colon) was 2.57 µM, the GI50 (NCI-H226 lung) was 4.22 µM and the TGI (NCI-H226 lung) was 19.8 µM. The GI50 (UACC-62 melanoma) was 1.8 µM, the TGI (UACC-62 melanoma) was 3.63 µM and the GI50 (LOX IMVI melanoma) was 1.69 µM. The TGI (LOX IMVI melanoma) was 3.25 µM, the GI50 (MDA-MB-231 breast) was 4.32 µM and the TGI (MDA-MB-231 breast) was 17.3 µM. For the same compound, the GI50 (UACC-257 melanoma) was 4.04 µM, the TGI (UACC-257 melanoma) was 15.7 µM and the GI50 (HCT-116 colon) was 2.17 µM. For the same compound, the TGI (HCT-116 colon) was 11.1 µM, the GI50 (NCI-H522 lung) was 10.3 µM and the TGI (NCI-H522 lung) was 23.4 µM. It also gave a GI50 (MDA-MB-435) of 3.09 µM, a TGI (MDA-MB-435) of 11.5 µM and a GI50 (BT-549 breast) of 2.86 µM. The TGI (BT-549 breast) was 9.3 µM, the GI50 (OVCAR-8 ovarian) was 9.52 µM and the TGI (OVCAR-8 ovarian) was 46.1 µM. The GI50 (UO-31 renal) was 2.36 µM, the TGI (UO-31 renal) was 10.4 µM and the GI50 (M14 melanoma) was 1.77 µM. It also gave a TGI (M14 melanoma) of 3.51 µM, a GI50 (PC-3 prostate) of 3.4 µM and a TGI (PC-3 prostate) of 21.4 µM. The GI50 (HOP-62 NSCLC) was 5.07 µM and the TGI (HOP-62 NSCLC) was 18.3 µM.
